Read-outs that look alike come from different tables or passages of the source. Blank lines part the entries; values can stand above or below the molecule they belong to.
Key:
[1] = test system: cutaneous leishmaniasis lesion; assay: golden hamster model for cutaneous leishmaniasis; format: in vivo; conditions: topical application in aqueous buffer (neutral pH) daily for ten days
Experimental: It was decided then to carry out a preliminary in vivo animal study according to standard practices using the golden hamster model for cutaneous leishmaniasis, using the compounds with the better profile as therapeutic agents against leishmaniasis. For that purpose the in vivo effectiveness of compounds 3b, 13b and 14c were tested FIG. 6.
It was decided then to carry out a small in vivo animal study according to standard practices using the golden hamster model for cutaneous leishmaniasis. For that purpose the in vivo effectiveness of compounds 3b, 13b and 14c were tested. Treatment consisted of a topical application of the compound suspended in an aqueous buffer (neutral pH) daily for ten days.

[2] = test system: promastigotes of L. tarentolae; assay: in vitro uptake of choline by promastigotes; format: cell-based
Text: (§1) Phosphatidyl choline can be synthesized by the parasite following the traditional Kennedy pathway (Zhang and Beverley, 2010), in which choline is converted to phosphatidyl choline via a sequence of steps, each catalyzed by a specific enzyme. The first step involves the phosphorylation of choline with the enzyme choline kinase.

[3] = test system: axenic amastigotes of L. (V) panamensis; assay: in vitro effectiveness against axenic amastigotes of L. (V) panamensis; format: cell-based
Text: Then, a series of compounds analogous to compound 3 (characterized by a tail G being a diarylalkenyl moiety) were synthesized in order to assess their in vitro effectiveness against L. (V) panamensis, a pathogenic species which causes human mucocutaneous leishmaniasis. Other halogenated analogs of choline were also synthesized and included in this in vitro effectiveness study. FIG. 2 illustrates the compounds evaluated for their in vitro effectiveness against axenic amastigotes of L. (V) panamensis.
The table shown in FIG. 7 contains the EC50 values (molar amount of compound that kills 50% of parasites in sample) obtained against axenic amastigotes of L. (V) panamensis. […] N-(HALOMETHYL) AMMONIUM SALTS AS […] AGENTS were compared with the respective non-halogenated (i.e. N,N,N-trimethyl quaternary ammonium salts) and with two compounds commonly used to treat leishmaniasis (meglumine antimoniate and amphotericin B).

[4] = test system: choline kinase of L. (L) infantum; assay: kinetic studies with choline kinase; format: biochemical; conditions: lowering its catalytic efficiency
Text: as §1

[5] = test system: promastigotes of L. tarentolae; assay: in vitro production of phosphatidyl choline by parasites; format: cell-based
Text: as §1

[6] = test system: amastigotes of L. (V) panamensis that have infected macrophage cells; assay: in vitro effectiveness against L. (V) panamensis amastigotes that have infected macrophage cells; format: cell-based
Experimental: Given that Leishmania parasites are known to infect monocyte cells, mostly macrophages and neutrophils, the in vitro effectiveness of some of the compounds was also tested on L. (V) panamensis in the amastigote stage that have been set to infect macrophage cells. FIG. 5 contains the list of compounds evaluated.
On the other hand, the results of the in vitro activity study of some […] N-(HALOMETHYL) AMMONIUM SALTS AS […] AGENTS shown in FIG. 5 against infected macrophage cells with Leishmania panamesis are shown in FIG. 8.

Indian visceral disease = conditions: cited from earlier work
Chagas disease = conditions: given soon after infection at the onset of the acute phase; cited from earlier work
L. major promastigotes = conditions: cited from earlier work

Molecule: C[N+](C)(CCl)CCC=C(c1ccccc1)c1ccccc1 [Compound 13b]
- cure of animals [1]: cure of the majority of the animals

- inhibition of choline kinase [4]: able to inhibit this enzyme
Molecule: C[N+](C)(CI)CCCCC=C(c1ccccc1)c1ccccc1 [Compound 14a]
- uptake of choline by promastigotes [2]: interferes with the in vitro uptake of choline
- relative effectiveness against axenic amastigotes of L. (V) panamensis ([3]; FIG. 7): the most effective
- production of phosphatidyl choline [5]: inhibits the in vitro production of phosphatidyl choline

- EC50 [3]: 0.041 ± 0.001 µM
Molecule: C[C@@H]1[C@H](O)[C@@H](C)/C=C/C=C/C=C/C=C/C=C/C=C/C=C/[C@H](O[C@@H]2O[C@H](C)[C@@H](O)[C@H](N)[C@@H]2O)C[C@@H]2O[C@](O)(C[C@@H](O)C[C@@H](O)[C@H](O)CC[C@@H](O)C[C@@H](O)CC(=O)O[C@H]1C)C[C@H](O)[C@H]2C(=O)O [amphotericin B]
- EC50 against infected macrophage cells with L. (V) panamensis [6]: 0.05 ± 0.001 µg/mL
- effective against the Indian visceral disease (Indian visceral disease; dose of 5-10 mg/kg): 90%
- effective against the Indian visceral disease (Indian visceral disease; total dose of 15 mg/kg body weight): 100%

Molecule: O=C(Cn1ccnc1[N+](=O)[O-])NCc1ccccc1 [benznidazole]
- effective in curing the disease (Chagas disease): ~100%

Molecule: CCCCCCCCCCCC[N+](C)(C)C.[Br-] [dodecyltrimethyl ammonium bromide]
- growth of L. major promastigotes (L. major promastigotes): inhibit the growth

Molecule: CCCCCCCCCCCCCCCCCC[N+](C)(C)C.[Br-] [octadecyltrimethyl ammonium bromide]
- growth of L. major promastigotes (L. major promastigotes): inhibit the growth

Molecule: meglumine antimoniate
- EC50 against infected macrophage cells with L. (V) panamensis [6]: 6.33 ± 0.86 µg/mL
- EC50 [3]: 312 ± 18.6 µM

— patent US9145352B2, “Quaternary N-(halomethyl) ammonium salts as therapeutic agents” (UNIVERSIDAD DE CALDAS, priority 2012, dated 2015)
